Patent US12582624B2, “Co-crystal of gabapentin, ketoprofen and lysine, pharmaceutical compositions and their medical use” (DOMPÉ FARMACEUTICI S.P.A., priority 2020, dated 2026)

What was measured:
[1] = cited from earlier work
[2] = test system: carrageenan-induced rat paw edema; test: Carrageenan-induced rat paw edema test; format: in vivo
Method: Inflammatory pain in rats induced by carrageenan intraplantar injection Male Wistar rats (270-280 g) (Envigo, Italy), were housed 2-3 per cage under controlled illumination (12:12 h light:dark cycle; light on 06.00 h) and standard environmental conditions (room temperature 22±1° C., humidity 60±10%) for at least 1 week before experimental use. Rat chow and tap water were available ad libitum. The procedures were approved by the Animal Ethics Committee of University of Campania “Luigi Vanvitelli”. Animal care was in compliance with Italian Legislative Decree (D.L. 116/92) and European Commission Directive (O.J. of E.C. L358/1, 18/12/86) regulations on the protection of laboratory animals. All efforts were made to minimize animal suffering and the number of animals used.
Peripheral inflammatory pain was induced in the left hind paw of each animal by a single intraplantar injection of 1% A-carrageenan (100 μl for each rat in 0.9% NaCl). […] Edema was expressed as the mean increase in paw volume (ml) relative to control animals. The percentage inhibition of edema was calculated by the following equation: % inhibition of edema=(Vc−Vt/Vc)×100, where Vc is the edema volume in the control group and Vt is the edema volume in treated group.

in vivo = settings: male, Sprague Dawley, rat, po
Text: Aim of the study was the determination of the brain penetration of Gabapentin in KLS-Gabapentin Co-crystal compared to the physical mixture of KLS and so Gabapentin and Gabapentin alone after administration in capsules in the rats.
Sprague Dawley male rat (body weights 310 gr at the time of the treatment) were used in this study. The animals were originally supplied by Harlan, Italy. Once receipt from the supplier, the animals were subjected to health examinations and acceptance. The animals were housed, in a group of three, in cages suitable for the species and were routinely kept in the following environment except for short periods of time where experimental procedures dictated otherwise. The animals were acclimatized to local housing conditions for approximately 5 days.
The experimental protocol consisted in the blood and brain tissue sampling on the animals according to the following Tables 12 and 13 and analysis of samples as described below.
Stock solutions of Ketoprofen and Gabapentin were prepared at 1 mg/mL in MeOH and a mix stock solution was prepared by dilution of the two mentioned before to reach a final concentration of 100 μg/mL of each analyte. Stock solutions of DF1681Y and Gabapentin Impurity A were prepared respectively at 2 mg/mL and 1 mg/mL in MeOH. A mixture of the two was prepared in ACN with a final so concentration of 5000 and 500 ng/mL respectively (mix IS). […]

[3] = cited from earlier work; remark: listed apart in the source
[4] = in vivo; cited from earlier work

CC(C(=O)O)c1cccc(C(=O)c2ccccc2)c1 (racemic) [Ketoprofen, (RS)-2-(3-benzoylphenyl)-propionic acid]
pKa [1]: 4.08

NCC1(CC(=O)O)CCCCC1 [Gabapentin]
Activity on inflammatory pain ([2]; Carrageenan inflammatory rat model): little active | Effect on carrageenan-evoked edema ([2]; FIGS. 13 and 15, oral, rat): less effective | Kp at 2 h (in vivo): 0.378 | Time to utmost level in plasma ([3]; after oral administration): 3 to 4 h | Plasma protein binding ([3]; in vivo): does not attach to plasma proteins | Excretion half-life ([3]; renal excretion): roughly 6 hours | Side effect: ataxia [4]: 13% | Side effect: dizziness [4]: 18% | Side effect: fatigue [4]: 11% | Side effect: somnolence [4]: 20%
